# Assay results from patent US12599646B2, “Peptide-containing composition for use for treating neoplastic lesions” (CYTOVATION ASA, priority 2020, dated 2026).
# Square brackets hold non-standard residues; d marks the D form. Peptide text beside a SMILES is read from it.
# Assays:
# [1] = Saturated solubility of CyPep-1 in liquid excipients; format: physicochemical; conditions: 25° C.
# Protocol: A sample of the saturated supernatant was examined using light microscopy with a magnification of 200-1000× using a LEICA® (Germany) DME light microscope. The saturated supernatant was mounted on a microscope slide and examined immediately using both polarised and non-polarised light for the presence of CyPep-1 crystals. The dilution (Step (vii)) was performed immediately after the centrifugation step. • (vii) Since the solubility of CyPep-1 in these excipients was unknown, an appropriate dilution was made to achieve a concentration of CyPep-1 in sample diluent (deionised water) that was above the limit of quantification of the HPLC method, prior to analysis. For excipients which were saturated following the addition of ca. 20 mg of CyPep-1 the following dilution was performed: • (a) Into a 10 mL volumetric flask ca. 50 mg of the saturated solution was weighed. • (b) The volumetric flask from Step (a) was made to volume with sample diluent (deionised water) and vortex mixed for 30 s. • (c) An aliquot of the diluted sample from Step (b) was transferred to an HPLC vial and analysed by HPLC as described above. • (viii) For excipients which were saturated following the addition of ca. 40 mg of CyPep-1 the dilution was performed as detailed in Step (vii), however a 20 mL volumetric flask was used. Stability Testing—Method
# [2] = Short-term stability testing: percentage recovery of CyPep-1 from formulations; conditions: 40° C., t=2 weeks
# Protocol: HPLC was performed using a PHENOMENEX® (USA) KINETEX® C18 5 μm 100 Å 4.6×250 mm column and a PHENOMENEX® SecurityGuard C18 5 μm guard column, as follows:
# The optimal extraction method developed was performed as follows: • (i) 150 mg formulation was weighed into a 10 ml volumetric flask. • (ii) The flask was made up to volume with 50:50 v/v water:ethanol. • (iii) The volumetric flask was vortex-mixed for 30 s to disperse the formulation, yielding an extraction solution containing CyPep-1 at a concentration of 150 μg/ml. • (iv) A PTFE magnetic stirrer was added to the volumetric flask from Step (iii) and the contents of the volumetric flask was stirred for 2 h at 500 rpm. • (v) The extraction solution from Step (iv) was transferred to centrifuge tubes and the samples were centrifuged at 16,000×g for 10 min at 25° C. • (vi) The supernatant was filtered using a 0.2 μm PTFE filter.
# The obtained, filtered solution was used for HPLC analysis.
# The 10 formulations described above which were not discarded were taken into stability testing. Samples of the formulations were stored at 2-8° C., 25° C. and 40° C. After 2 weeks, samples stored at 25° C. and 40° C. were assessed; after 4 weeks and 11 weeks samples stored at 2-8° C. and 25° C. were assessed.
# Stability of CyPep-1 in each formulation was determined based on how much CyPep-1 could be recovered at each time point at each temperature. […]
# neoplastic cells = conditions: as shown in WO 2011/092347; cited from earlier work
smiles,measurement,setting,value
CC[C@@H](C)[C@@H](NC(=O)[C@@H](C)NC(=O)[C@@H](CCCCN)NC(=O)[C@@H](C)NC(=O)[C@H](NC(=O)[C@@H](CCCNC(=N)N)NC(=O)[C@@H](CC(C)C)NC(=O)[C@H](NC(=O)[C@@H](CCCCN)NC(=O)CNC(=O)[C@@H](CCCNC(=N)N)NC(=O)[C@@H](CCCNC(=N)N)NC(=O)[C@@H](CCCNC(=N)N)NC(=O)[C@@H](CCC(N)=O)NC(=O)[C@@H](CCCNC(=N)N)NC(=O)[C@@H](CCCNC(=N)N)NC(=O)[C@@H](CCCCN)NC(=O)[C@@H](CCCCN)NC(=O)[C@@H](CCCNC(=N)N)NC(=O)CNC(=O)[C@H](N)Cc1ccc(O)cc1)[C@H](C)O)C(C)C)C(=O)N[C@H](Cc1ccc(O)cc1)C(=O)N[C@H](CCCCN)C(=O)N[C@H](CCCNC(=N)N)C(=O)N[C@H](Cc1ccc(O)cc1)C(=O)N[C@@H](C(=O)N[C@H](CCC(=O)O)C(=O)O)[C@H](C)CC [CyPep-1] (H-[dY]G[dR][dK][dK][dR][dR][dQ][dR][dR][dR]G[dK][dT][dL][dR][dV][dA][dK][dA][dI][dY][dK][dR][dY][dI][dE]-OH; N-terminus and C-terminus assumed),saturated solubility of CyPep-1,[1]; benzyl alcohol,more than 10 % w/w
same,saturated solubility of CyPep-1,"[1]; deionised water (pH 4, 5, 6 or 7)",more than 10 % w/w
same,saturated solubility of CyPep-1,[1]; ethanol,more than 10 % w/w
same,saturated solubility of CyPep-1,[1]; phenoxyethanol,more than 10 % w/w
same,stability of CyPep-1 in cream and ointment formulations,[2],unstable
same,cytotoxicity to neoplastic cells,neoplastic cells,selectively cytotoxic
